Test results taken from ChEMBL document CHEMBL4190322, “Structure-based development of novel triazoles and related thiazolotriazoles as anticancer agents and Cdc25A/B phosphatase inhibitors. Synthesis, in vitro biological evaluation, molecular docking and in silico ADME-T studies” (Eur J Med Chem, 2017).
Active and inactive are the calls of the source. The calls are words filed in the database; no cut-off is given here.

Legend:
Format in all cases: functional
HT-29 = experiment: Growth inhibition of human HT-29 cells at 10 uM after 48 hrs by SRB assay relative to control
OVCAR-8 = experiment: Growth inhibition of human OVCAR8 cells at 10 uM after 48 hrs by SRB assay relative to control
CCRF-CEM = experiment: Growth inhibition of human CCRF-CEM cells at 10 uM after 48 hrs by SRB assay relative to control; settings: read-out: GI
K562 = experiment: Growth inhibition of human K562 cells at 10 uM after 48 hrs by SRB assay relative to control; settings: K562, 48 h, read-out: GI
SR = experiment: Growth inhibition of human SR cells at 10 uM after 48 hrs by SRB assay relative to control; settings: read-out: GI
MOLT-4 = experiment: Growth inhibition of human MOLT4 cells at 10 uM after 48 hrs by SRB assay relative to control
RPMI-8226 = experiment: Growth inhibition of human RPMI8226 cells at 10 uM after 48 hrs by SRB assay relative to control; settings: RPMI-8226, 48 h, read-out: GI
HL-60 = experiment: Growth inhibition of human HL60 cells at 10 uM after 48 hrs by SRB assay relative to control
A549 = experiment: Growth inhibition of human A549 cells at 10 uM after 48 hrs by SRB assay relative to control
HOP-62 = experiment: Growth inhibition of human HOP62 cells at 10 uM after 48 hrs by SRB assay relative to control; settings: HOP-62, 48 h, read-out: GI
HOP-92 = experiment: Growth inhibition of human HOP92 cells at 10 uM after 48 hrs by SRB assay relative to control; settings: HOP-92, 48 h, read-out: GI
NCI-H226 = experiment: Growth inhibition of human NCI-H226 cells at 10 uM after 48 hrs by SRB assay relative to control
NCI-H23 = experiment: Growth inhibition of human NCI-H23 cells at 10 uM after 48 hrs by SRB assay relative to control; settings: NCI-H23, 48 h, read-out: GI
NCI-H322M = experiment: Growth inhibition of human NCI-H322M cells at 10 uM after 48 hrs by SRB assay relative to control
NCI-H522 = experiment: Growth inhibition of human NCI-H522 cells at 10 uM after 48 hrs by SRB assay relative to control; settings: NCI-H522, 48 h, read-out: GI
HCT-116 = experiment: Growth inhibition of human HCT116 cells at 10 uM after 48 hrs by SRB assay relative to control
KM12 = experiment: Growth inhibition of human KM12 cells at 10 uM after 48 hrs by SRB assay relative to control; settings: KM12, 48 h, read-out: GI
SF-268 = experiment: Growth inhibition of human SF268 cells at 10 uM after 48 hrs by SRB assay relative to control
SNB-19 = experiment: Growth inhibition of human SNB19 cells at 10 uM after 48 hrs by SRB assay relative to control; settings: SNB-19, 48 h, read-out: GI
SNB-75 = experiment: Growth inhibition of human SNB75 cells at 10 uM after 48 hrs by SRB assay relative to control; settings: SNB-75, 48 h, read-out: GI
U-251 = experiment: Growth inhibition of human U251 cells at 10 uM after 48 hrs by SRB assay relative to control; settings: U-251, 48 h, read-out: GI
LOX IMVI = experiment: Growth inhibition of human LOXIMVI cells at 10 uM after 48 hrs by SRB assay relative to control; settings: read-out: GI
SK-MEL-2 = experiment: Growth inhibition of human SK-MEL-2 cells at 10 uM after 48 hrs by SRB assay relative to control
SK-MEL-5 = experiment: Growth inhibition of human SK-MEL-5 cells at 10 uM after 48 hrs by SRB assay relative to control
UACC-257 = experiment: Growth inhibition of human UACC257 cells at 10 uM after 48 hrs by SRB assay relative to control
UACC-62 = experiment: Growth inhibition of human UACC62 cells at 10 uM after 48 hrs by SRB assay relative to control
OVCAR-3 = experiment: Growth inhibition of human OVCAR3 cells at 10 uM after 48 hrs by SRB assay relative to control
OVCAR-4 = experiment: Growth inhibition of human OVCAR4 cells at 10 uM after 48 hrs by SRB assay relative to control; settings: OVCAR-4, 48 h, read-out: GI
NCI/ADR-RES = experiment: Growth inhibition of human NCI/ADR-RES cells at 10 uM after 48 hrs by SRB assay relative to control; settings: read-out: GI
SK-OV-3 = experiment: Growth inhibition of human SKOV3 cells at 10 uM after 48 hrs by SRB assay relative to control
786-0 = experiment: Growth inhibition of human 786-0 cells at 10 uM after 48 hrs by SRB assay relative to control
A498 = experiment: Growth inhibition of human A498 cells at 10 uM after 48 hrs by SRB assay relative to control; settings: A498, 48 h, read-out: GI
CAKI-1 = experiment: Growth inhibition of human Caki1 cells at 10 uM after 48 hrs by SRB assay relative to control; settings: CAKI-1, 48 h, read-out: GI
RXF 393 = experiment: Growth inhibition of human RXF393 cells at 10 uM after 48 hrs by SRB assay relative to control
UO-31 = experiment: Growth inhibition of human UO31 cells at 10 uM after 48 hrs by SRB assay relative to control; settings: UO-31, 48 h, read-out: GI
PC-3 = experiment: Growth inhibition of human PC3 cells at 10 uM after 48 hrs by SRB assay relative to control; settings: PC-3, 48 h, read-out: GI
MCF7 = experiment: Growth inhibition of human MCF7 cells at 10 uM after 48 hrs by SRB assay relative to control; settings: MCF7, 48 h, read-out: GI
Hs-578T = experiment: Growth inhibition of human Hs 578T cells at 10 uM after 48 hrs by SRB assay relative to control
MDA-MB-468 = experiment: Growth inhibition of human MDA-MB-468 cells at 10 uM after 48 hrs by SRB assay relative to control
Malme-3M = experiment: Growth inhibition of human MALME-3M cells at 10 uM after 48 hrs by SRB assay relative to control

## COc1ccc(Cc2nnc3sc(SCC(=O)Nc4ccc(Cl)cc4)nn23)cc1
HT-29
  growth inhibition (GI): inactive
OVCAR-8
  growth inhibition (GI): inactive
CCRF-CEM
  inhibition of growth at 10 µM: 9.02%
K562
  inhibition of growth at 10 µM: 2.76%
SR
  inhibition of growth at 10 µM: 7.04%
MOLT-4
  growth inhibition (GI): inactive
RPMI-8226
  inhibition of growth at 10 µM: 7.47%
HL-60
  growth inhibition (GI): inactive
A549
  growth inhibition (GI): inactive
HOP-62
  inhibition of growth at 10 µM: 4.5%
HOP-92
  inhibition of growth at 10 µM: 20.3%
NCI-H226
  growth inhibition (GI): inactive
NCI-H23
  inhibition of growth at 10 µM: 9.4%
NCI-H322M
  growth inhibition (GI): inactive
NCI-H522
  inhibition of growth at 10 µM: 8.35%
HCT-116
  growth inhibition (GI): inactive
KM12
  inhibition of growth at 10 µM: 5.75%
SF-268
  growth inhibition (GI): inactive
SNB-19
  inhibition of growth at 10 µM: 10.4%
SNB-75
  inhibition of growth at 10 µM: 20.2%
U-251
  inhibition of growth at 10 µM: 4.46%
LOX IMVI
  inhibition of growth at 10 µM: 8%
SK-MEL-2
  growth inhibition (GI): inactive
SK-MEL-5
  growth inhibition (GI): inactive
UACC-257
  growth inhibition (GI): inactive
UACC-62
  growth inhibition (GI): inactive
OVCAR-3
  growth inhibition (GI): inactive
OVCAR-4
  inhibition of growth at 10 µM: 5.49%
NCI/ADR-RES
  inhibition of growth at 10 µM: 2.54%
SK-OV-3; SK-OV-3, 48 h, read-out: GI
  inhibition of growth at 10 µM: 1.64%
786-0
  growth inhibition (GI): inactive
A498
  inhibition of growth at 10 µM: 19.6%
CAKI-1
  inhibition of growth at 10 µM: 5.77%
RXF 393
  growth inhibition (GI): inactive
UO-31
  inhibition of growth at 10 µM: 10.2%
PC-3
  inhibition of growth at 10 µM: 14.8%
MCF7
  inhibition of growth at 10 µM: 10%
Hs-578T
  growth inhibition (GI): inactive
MDA-MB-468
  growth inhibition (GI): inactive
Malme-3M
  growth inhibition (GI): inactive

## CCSc1nnc(Cc2ccc(OC)cc2)n1-c1ccccc1
HT-29; HT-29, 48 h, read-out: GI
  inhibition of growth at 10 µM: 8.24%
OVCAR-8
  growth inhibition (GI): inactive
CCRF-CEM
  inhibition of growth at 10 µM: 7.61%
K562
  inhibition of growth at 10 µM: 14.1%
SR
  inhibition of growth at 10 µM: 3.31%
MOLT-4; MOLT-4, 48 h, read-out: GI
  inhibition of growth at 10 µM: 10%
RPMI-8226
  inhibition of growth at 10 µM: 13.5%
HL-60
  growth inhibition (GI): inactive
A549; A549, 48 h, read-out: GI
  inhibition of growth at 10 µM: 5.86%
HOP-62
  inhibition of growth at 10 µM: 2.28%
HOP-92
  inhibition of growth at 10 µM: 8.26%
NCI-H226; NCI-H226, 48 h, read-out: GI
  inhibition of growth at 10 µM: 5.31%
NCI-H23
  inhibition of growth at 10 µM: 6.16%
NCI-H322M
  growth inhibition (GI): inactive
NCI-H522
  inhibition of growth at 10 µM: 22.4%
HCT-116
  growth inhibition (GI): inactive
KM12
  inhibition of growth at 10 µM: 3.07%
SF-268; SF-268, 48 h, read-out: GI
  inhibition of growth at 10 µM: 6.15%
SNB-19
  inhibition of growth at 10 µM: 14.5%
SNB-75
  inhibition of growth at 10 µM: 10%
U-251
  inhibition of growth at 10 µM: 13%
LOX IMVI
  inhibition of growth at 10 µM: 4.89%
SK-MEL-2; SK-MEL-2, 48 h, read-out: GI
  inhibition of growth at 10 µM: 5%
SK-MEL-5; SK-MEL-5, 48 h, read-out: GI
  inhibition of growth at 10 µM: 4.7%
UACC-257; UACC-257, 48 h, read-out: GI
  inhibition of growth at 10 µM: 3.16%
UACC-62
  growth inhibition (GI): inactive
OVCAR-3
  growth inhibition (GI): inactive
OVCAR-4
  inhibition of growth at 10 µM: 7.48%
NCI/ADR-RES
  inhibition of growth at 10 µM: 6.88%
SK-OV-3
  growth inhibition (GI): inactive
786-0
  growth inhibition (GI): inactive
A498
  inhibition of growth at 10 µM: 22.1%
CAKI-1
  inhibition of growth at 10 µM: 11.9%
RXF 393
  growth inhibition (GI): inactive
UO-31
  inhibition of growth at 10 µM: 20%
PC-3
  inhibition of growth at 10 µM: 14.3%
MCF7
  inhibition of growth at 10 µM: 5.53%
Hs-578T
  growth inhibition (GI): inactive
MDA-MB-468; MDA-MB-468, 48 h, read-out: GI
  inhibition of growth at 10 µM: 10.7%
Malme-3M; read-out: GI
  inhibition of growth at 10 µM: 9.23%
